Patent US6716838B1, “Substituted polycyclic aryl and heteroaryl uracils as anticoagulative agents” (Pharmacia Corporation, priority 1999, dated 2004)

Legend:
Assay type in all cases: biochemical
[1] = molecular target: T1, recombinant soluble tissue factor and recombinant human factor VIIa (Homo sapiens, UniProt P08709); assay: TF-VIIa Assay; settings: chromogenic substrate, 60 min at room temperature, pH 8.0
T1 construct: purchased American Diagnostica, Greenwich Conn; (factor VIIa); soluble TF made in house; host or cells: E. coli (soluble TF only)
Method: In this assay 100 nM recombinant soluble tissue factor and 2 nM recombinant human factor VIIa are added to a 96-well assay plate containing 0.4 mM of the substrate, N-Methylsulfonyl-D-phe-gly-arg-p-nitroaniline and either inhibitor or buffer (5 mM CaCl2, 50 mM Tris-HCl, pH 8.0, 100 mM NaCl, 0.1% BSA). The reaction, in a final volume of 100 ul is measured immediately at 405 nm to determine background absorbance. The plate is incubated at room temperature for 60 min, at which time the rate of hydrolysis of the substrate is measured by monitoring the reaction at 405 nm for the release of p-nitroaniline. Percent inhibition of TF-VIIa activity is calculated from OD405 nm value from the experimental and control sample.
(§1) Recombinant soluble TF, consisting of amino acids 1-219 of the mature protein sequence was expressed in E. coli and purified using a Mono Q Sepharose FPLC. Recombinant human VIIa was purchased from American Diagnostica, Greenwich Conn. and chromogenic substrate N-Methylsulfonyl-D-phe-gly-arg-p-nitroaniline was prepared by American Peptide Company, Inc., Sunnyvale, Calif. Factor Xa was obtained from Enzyme Research Laboratories, South Bend Ind., thrombin from Calbiochem, La Jolla, Calif., and trypsin and L-BAPNA from Sigma, St Louis Mo. The chromogenic substrates S-2765 and S-2238 were purchased from Chromogenix, Sweden.

human thrombin = human thrombin (Homo sapiens, UniProt P00734); assay: Thrombin Assay; settings: chromogenic substrate, 60 min at room temperature, pH 8.0; read-out: Thrombin II IC50
Method: (§2) 0.28 nM human thrombin and 0.06 mM H-D-Phenylalanyl-L-pipecolyl-L-argioine-p-nitroaniline dihydrochloride are added to a 96-well assay plate containing either inhibitor or buffer (50 mM Tris-HCl, pH 8.0, 100 mM NaCl, 0.1% BSA). The reaction, in a final volume of 100 ul is measured immediately at 405 nm to determine background absorbance. The plate is incubated at room temperature for 60 min, at which time the rate of hydrolysis of the substrate is measured by monitoring the reaction at 405 nm for the release of p-nitroaniline. Percent inhibition of thrombin activity is calculated from OD405 nm value from the experimental and control sample.
as §1

human factor Xa = molecular target: T2, human factor Xa (Homo sapiens, UniProt P00742); assay: Xa Assay; settings: substrate S-2765, 60 min at room temperature, pH 8.0
T2 construct: leads from XII to XIIa to XIa to IXa and to the conversion of X to Xa; purchased Enzyme Research Laboratories, South Bend Ind
Method: as §2, with “0.3 nM” for “0.28 nM”, “human factor Xa” for “human thrombin”, “and 0.15” for “and 0.06”, “mM N-α-Benzyloxycarbonyl-D-arginyl-L-glycyl-L-arginine-p-nitroaniline-dihydrochloride (S-2765)” for “mM H-D-Phenylalanyl-L-pipecolyl-L-argioine-p-nitroaniline dihydrochloride”, “of Xa” for “of thrombin”
as §1

[2] = molecular target: T3, trypsin, type IX from porcine pancreas (Sus scrofa, UniProt P00761); assay: Trypsin Assay; settings: substrate L-BAPNA, 60 min at room temperature, pH 8.0; read-out: Trypsin II IC50
T3 construct: purchased Sigma, St Louis Mo. type IX; host or cells: porcine pancreas
Method: 5 ug/ml trypsin, type IX from porcine pancreas and 0.375 mM N-α-Benzoyl-L-arginine-p-nitroanilide (LBAPNA) are added to a 96-well assay plate containing either inhibitor or buffer (50 mM Tris-HCl, pH 8.0, 100 mM NaCl, 0.1% BSA). The reactions, in a final volume of 100 ul are measured immediately at 405 nm to determine background absorbance. The plate is incubated at room temperature for 60 min, at which time the rate of hydrolysis of the substrate is measured by monitoring the reaction at 405 nm for the release of p-nitroaniline. Percent inhibition of trypsin activity is calculated from OD405 nm value from the experimental and control sample.
as §1

T3 sequence (P00761 9-231): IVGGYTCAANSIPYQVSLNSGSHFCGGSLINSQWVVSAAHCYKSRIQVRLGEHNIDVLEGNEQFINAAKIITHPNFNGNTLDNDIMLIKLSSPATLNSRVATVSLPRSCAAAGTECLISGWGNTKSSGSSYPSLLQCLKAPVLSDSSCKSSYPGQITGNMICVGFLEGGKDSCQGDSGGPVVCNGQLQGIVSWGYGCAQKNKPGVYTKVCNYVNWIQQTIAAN
T1 sequence (P08709 213-466 limits assumed): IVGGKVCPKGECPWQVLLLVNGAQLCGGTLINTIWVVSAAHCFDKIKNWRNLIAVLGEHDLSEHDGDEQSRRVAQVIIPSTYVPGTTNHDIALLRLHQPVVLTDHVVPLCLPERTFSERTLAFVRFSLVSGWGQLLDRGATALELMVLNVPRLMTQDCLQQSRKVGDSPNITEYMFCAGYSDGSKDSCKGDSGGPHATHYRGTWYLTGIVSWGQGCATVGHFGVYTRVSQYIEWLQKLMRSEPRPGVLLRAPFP
T1 sequence (P08709 61-212 limits assumed): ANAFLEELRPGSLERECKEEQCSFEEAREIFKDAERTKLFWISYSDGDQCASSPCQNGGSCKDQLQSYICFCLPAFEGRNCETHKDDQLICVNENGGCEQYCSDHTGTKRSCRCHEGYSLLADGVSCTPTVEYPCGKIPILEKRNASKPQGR
T1 sequence (P13726 33-251 partner limits assumed): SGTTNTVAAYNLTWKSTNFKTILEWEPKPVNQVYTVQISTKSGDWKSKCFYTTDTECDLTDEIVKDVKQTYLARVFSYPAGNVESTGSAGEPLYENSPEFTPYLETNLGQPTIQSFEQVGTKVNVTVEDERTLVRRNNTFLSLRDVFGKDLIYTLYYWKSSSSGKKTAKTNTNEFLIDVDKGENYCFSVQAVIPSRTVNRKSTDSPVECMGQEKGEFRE
T2 sequence (P00742 235-488 limits assumed): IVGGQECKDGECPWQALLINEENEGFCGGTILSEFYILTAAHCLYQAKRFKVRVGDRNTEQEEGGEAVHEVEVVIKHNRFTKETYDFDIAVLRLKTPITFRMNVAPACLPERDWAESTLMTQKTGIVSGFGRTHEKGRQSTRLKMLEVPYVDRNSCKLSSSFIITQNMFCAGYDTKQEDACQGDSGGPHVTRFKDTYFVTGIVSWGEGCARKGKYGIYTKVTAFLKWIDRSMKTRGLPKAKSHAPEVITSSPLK
T2 sequence (P00742 41-179 limits assumed): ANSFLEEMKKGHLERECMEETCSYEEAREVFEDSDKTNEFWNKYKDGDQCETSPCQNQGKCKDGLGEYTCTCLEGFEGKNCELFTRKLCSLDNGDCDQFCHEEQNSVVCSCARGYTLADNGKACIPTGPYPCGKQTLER

| IC50 [1] | IC50 (human thrombin) | IC50 (human factor Xa) | IC50 [2] | Structure (SMILES) |
| --- | --- | --- | --- | --- |
| 12900 nM | 300 nM | 200 nM | 200 nM | N=C(N)NCCC[C@H](NC(=O)Cn1c(=O)c(NS(=O)(=O)Cc2ccccc2)cn(Cc2ccccc2)c1=O)C(=O)c1nccs1 [Example 2] |
| > 100000 nM | 13000 nM | 25600 nM | 400 nM | N=C(N)c1ccc(CNC(=O)Cn2c(=O)c(NS(=O)(=O)Cc3ccccc3)cn(Cc3ccccc3)c2=O)cc1 [Example 1] |
